Consider 3 compounds from patent publication US5756355A, “Lipid membrane sensors” (Ecole Polytechnique Federale de Lausanne, priority 1992, dated 1998).

SMILES strings stand for the structures.

The nature of experiment [1]: Current responses of the lipid bilayer without receptor (pure lipid layer). To be noted: for alterations of the electrical properties of the lipid layer without receptor: same concentration range as with receptor; for Icap current response / Ifarad current response: pure lipid layer without receptor. The procedure:
For comparison, a corresponding lipid bilayer without the receptor protein was formed by completing the imperfect thiolipid monolayer on the gold electrode with the corresponding pure phospholipid/detergent solution.
The same experiment was performed using a lipid layer without receptor.
The same experiment was performed using the lipid bilayer without receptor.
A large (geometrical area about 1 cm^2) AgCl-coated Ag wire served as the counter/reference electrode and was fixed at a defined distance from the working electrode. […] The real and imaginary parts of the impedance were obtained from the currents in phase (faradaic component Ifarad) and 90° out of phase (capacitive component Icap) with the applied voltage, respectively. These currents were measured on a 1 k.OMEGA. resistor in series with the electrodes.
(§1) The impedance and capacitance of the membrane layers on the gold electrodes were determined from the two current components, Ifarad and Icap, using a simplified model for the electrical behaviour of the membrane with the membrane resistance R=Uo /Ifarad in parallel to the membrane capacitance C=Icap /(2πvUo).

A further experiment concerns the target T1, 5-HT3 receptor (Bos taurus, UniProt F1N4Y2).
T1 construct: from tissue; host or cells: calf brain, entorhinal cortex and hippocampus; detergent (OPG) solubilised and purified on 5-HT-agarose
T1 sequence (F1N4Y2 29-488): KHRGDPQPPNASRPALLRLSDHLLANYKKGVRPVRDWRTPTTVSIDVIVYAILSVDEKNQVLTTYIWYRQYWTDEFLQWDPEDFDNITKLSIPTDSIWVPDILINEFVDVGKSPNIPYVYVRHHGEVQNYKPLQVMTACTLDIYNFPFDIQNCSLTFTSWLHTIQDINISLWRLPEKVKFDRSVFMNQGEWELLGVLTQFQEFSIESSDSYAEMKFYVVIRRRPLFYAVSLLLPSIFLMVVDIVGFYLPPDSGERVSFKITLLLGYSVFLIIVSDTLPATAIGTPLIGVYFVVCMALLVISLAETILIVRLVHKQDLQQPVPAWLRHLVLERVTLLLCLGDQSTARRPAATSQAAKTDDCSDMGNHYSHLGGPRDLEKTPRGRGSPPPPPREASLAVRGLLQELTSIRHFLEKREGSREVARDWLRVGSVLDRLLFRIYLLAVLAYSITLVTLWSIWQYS
In words: Current responses of gold-supported lipid bilayer sensor with incorporated 5-HT3 receptor during stimulation by agonists, without or with antagonist. Format: biochemical, calf. On the procedure:
A 1 mm^2 gold electrode was cleaned and inserted into the electrochemical cell as described in Example 5. First, 100 μl of the thiolipid/OPG solution (0.7 mM/48 mM in 0.1 M KCl) was added and the adsorption process followed as described in Example 6. After approximately 2 minutes, the solution was completely replaced. The sample was washed several times with 55 mM OGP in 0.1 M KCl.
A receptor-containing solution was prepared as follows: 2 mg (2.9 μmol) of DMPC, 2 mg (2.6 μmol) of POPC (i.e. an approximately 1:1 molar ratio of DMPC: POPC) and 2 mg ([…]) of OPG were ultrasonicated in 1 ml of 0.1 M KCl, until the solution became clear. This solution was mixed with 15 μg of the 5-HT3 receptor (1 mg/ml, in 40 mM OPG and complex buffer "A" as used in Example 4), 100 μl of the receptor-containing solution was placed in the cell. After about 2 minutes, the cell solution was diluted stepwise by the addition of small portions of 0.1 M KCl. Finally, the solution was completely replaced by 0.1 M KCl. The resulting layer was used for experiments within 5 hours at most, then being removed by washing with 55 mM OGP in 0.1 M KCl and formed again using the ice-cooled receptor solution.
50 μl portions of 5-HT solution "B" (20 μM 5-HT in 0.1 M KCl) were added successively to the layer with the incorporated receptor (still connected to the cell containing 500 μl of 0.1 M KCl). An interval of about 50 seconds was left between additions (the capacitive and the faradaic current reaching a constant value).
The construction of the receptor-containing system was performed as described above. Again, 500 μl of 0.1 M KCl was placed in the measurement cell but for stimulation, a solution "C" of 20 μM 1-phenylbiguanide, another agonist, in 0.1 M KCl was used.
The supported lipid bilayer, containing the 5-HT3 receptor, was formed as described in (ii). […] After each addition, the values of the capacitive and the faradaic currents were allowed to stabilize.
A large (geometrical area about 1 cm^2) AgCl-coated Ag wire served as the counter/reference electrode and was fixed at a defined distance from the working electrode. The impedance measurements were made using a two-channel lock-in amplifier (EG&G model 5206) at v=120 Hz, applying Uo =17.5 mV RMS to the electrochemical cell. The real and imaginary parts of the impedance were obtained from the currents in phase (faradaic component Ifarad) and 90° out of phase (capacitive component Icap) with the applied voltage, respectively. These currents were measured on a 1 k.OMEGA. resistor in series with the electrodes.
as §1

Setting [2] is: phenylbiguanide 1.82 μM, Experiment 1.
The mark [3] stands for this setting: phenylbiguanide 1.82 μM, Experiment 2.
The mark [4] stands for this setting: phenylbiguanide 3.33 μM, Experiment 1.
Where [5] appears, read: phenylbiguanide 3.33 μM, Experiment 2.
The mark [6] stands for this setting: phenylbiguanide 4.62 μM, Experiment 1.
The mark [7] stands for this setting: phenylbiguanide 4.62 μM, Experiment 2.
Setting [8] is: phenylbiguanide 5.71 μM, Experiment 1.
Setting [9] is: phenylbiguanide 5.71 μM, Experiment 2.
[10] abbreviates: phenylbiguanide 6.67 μM, Experiment 1.
Where [11] appears, read: phenylbiguanide 6.67 μM, Experiment 2.
The mark [12] stands for this setting: phenylbiguanide 7.50 μM, Experiment 1.
Where [13] appears, read: phenylbiguanide 7.50 μM, Experiment 2.
The mark [14] stands for this setting: phenylbiguanide 8.89 μM, Experiment 1.
The mark [15] stands for this setting: phenylbiguanide 8.89 μM, Experiment 2.
Where [16] appears, read: phenylbiguanide 11.67 μM, Experiment 1.
The mark [17] stands for this setting: phenylbiguanide 11.67 μM, Experiment 2.
The mark [18] stands for this setting: phenylbiguanide 12.86 μM, Experiment 1.
Setting [19] is: phenylbiguanide 12.86 μM, Experiment 2.
[20] abbreviates: phenylbiguanide 14.74 μM, Experiment 1.
Where [21] appears, read: phenylbiguanide 14.74 μM, Experiment 2.
[22] abbreviates: phenylbiguanide 10. μM, Experiment 1.
[23] abbreviates: phenylbiguanide 10. μM, Experiment 2.

As for `CN1C2CCC1CC(OC(=O)c1c[nH]c3ccccc13)C2` (stereo not drawn) [ICS 205-930], the “alterations of the electrical properties of the lipid layer without receptor” value in experiment [1] is on record as “No alterations of the electrical properties of the lipid bilayer”. For the same compound, the “5-HT concentration necessary for binding to the receptor, times higher than in the absence of the antagonist” value at 5-HT3 receptor (in the presence of 10 nM ICS 205-930) is reported as “about 40 times”.

With `NCCc1c[nH]c2ccc(O)cc12` [5-hydroxytryptamine], the “alterations of the electrical properties of the lipid layer without receptor” value in experiment [1] is “no alterations of the electrical properties of the pure lipid layer were observed”.

`N=C(N)NC(=N)Nc1ccccc1` [1-phenylbiguanide]: the Icap current response in experiment [1] (1-phenylbiguanide 7.5 μM) amounted to 96.5 nA; in experiment [1] (1-phenylbiguanide 14.74 μM), 96.4 nA; at 5-HT3 receptor (setting [2]), 96.3 nA; on 5-HT3 receptor (setting [3]), 97.3 nA; on 5-HT3 receptor (setting [4]), 97.1 nA; at 5-HT3 receptor (setting [5]) it was 98.0 nA. Also, the Icap current response is 97.6 nA at 5-HT3 receptor (setting [6]); 98.5 nA on 5-HT3 receptor (setting [7]); 98 nA on 5-HT3 receptor (setting [8]); 99.2 nA on 5-HT3 receptor (setting [9]); 98.3 nA at 5-HT3 receptor (setting [10]); 99.4 nA at 5-HT3 receptor (setting [11]). The Icap current response was found to be 98.4 nA at 5-HT3 receptor (setting [12]); 99.5 nA at 5-HT3 receptor (setting [13]); 98.5 nA on 5-HT3 receptor (setting [14]); 99.6 nA on 5-HT3 receptor (setting [15]); 98.6 nA on 5-HT3 receptor (setting [16]); 99.6 nA at 5-HT3 receptor (setting [17]). Moreover, the Icap current response on 5-HT3 receptor (setting [18]) came to 98.6 nA; on 5-HT3 receptor (setting [19]), 99.6 nA; at 5-HT3 receptor (setting [20]), 98.6 nA; on 5-HT3 receptor (setting [21]), 99.6 nA; on 5-HT3 receptor (setting [22]), 98.6 nA; on 5-HT3 receptor (setting [23]), 99.6 nA. In addition, the Ifarad current response was determined as 20.9 nA in experiment [1] (1-phenylbiguanide 7.5 μM); 20.7 nA in experiment [1] (1-phenylbiguanide 14.74 μM); 23.6 nA at 5-HT3 receptor (setting [2]); 22.7 nA on 5-HT3 receptor (setting [3]); 26.1 nA at 5-HT3 receptor (setting [4]); 25.0 nA on 5-HT3 receptor (setting [5]). Further, the Ifarad current response on 5-HT3 receptor (setting [6]) was found to be 27.7 nA; at 5-HT3 receptor (setting [7]) it was 26.6 nA; at 5-HT3 receptor (setting [8]) it was 28.9 nA; on 5-HT3 receptor (setting [9]) it was 28.3 nA; at 5-HT3 receptor (setting [10]) it was 29.7 nA; at 5-HT3 receptor (setting [11]), 29.0 nA. For the same compound, the Ifarad current response at 5-HT3 receptor (setting [12]) stood at 30.1 nA; on 5-HT3 receptor (setting [13]), 29.5 nA; on 5-HT3 receptor (setting [14]), 30.6 nA; on 5-HT3 receptor (setting [15]), 29.8 nA; at 5-HT3 receptor (setting [16]), 31.1 nA; at 5-HT3 receptor (setting [17]), 30.3 nA. Further, the Ifarad current response on 5-HT3 receptor (setting [18]) was 31.2 nA; on 5-HT3 receptor (setting [19]), 30.4 nA; at 5-HT3 receptor (setting [20]), 31.2 nA; on 5-HT3 receptor (setting [21]), 30.4 nA; at 5-HT3 receptor (setting [22]) it was 30.8 nA; on 5-HT3 receptor (setting [23]), 30.0 nA.
